# In US20240043860A1, “NOVEL HYDROXYPHENYLPYRUVATE DIOXYGENASE POLYPEPTIDES AND METHODS OF USE THEREOF” (Syngenta Crop Protection AG, priority 2020, published 2024):
# Several values for one entry are separate records, joined by “and”; a condition that tells them apart may be missing. Identical values can stand only once. Like-named read-outs stand apart in the source and are kept apart here.
# Experiments:
# [1] = target: HPPD variant AVESA V208 (SEQ ID NO: 14) (Avena sativa, UniProt A0ACD5V6K6, A327R/I340E/L359M/P271N/V218I); test: biochemical; type: biochemical
# Chain of HPPD variant AVESA V208 (SEQ ID NO: 14) (A0ACD5V6K6 entry or part of it V218I/P271N/A327R/I340E/L359M): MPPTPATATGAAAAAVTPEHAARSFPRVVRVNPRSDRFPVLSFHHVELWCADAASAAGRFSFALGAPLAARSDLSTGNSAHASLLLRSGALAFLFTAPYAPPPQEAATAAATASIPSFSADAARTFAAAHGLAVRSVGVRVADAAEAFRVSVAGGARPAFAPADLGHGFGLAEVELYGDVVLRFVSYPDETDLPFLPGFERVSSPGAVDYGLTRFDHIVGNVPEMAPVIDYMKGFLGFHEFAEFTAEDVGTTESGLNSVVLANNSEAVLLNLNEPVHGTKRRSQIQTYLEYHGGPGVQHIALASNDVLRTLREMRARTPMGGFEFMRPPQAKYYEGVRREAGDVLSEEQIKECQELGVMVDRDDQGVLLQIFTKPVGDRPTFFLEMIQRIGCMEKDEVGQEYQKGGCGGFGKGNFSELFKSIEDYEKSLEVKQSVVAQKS
# Procedure: (§1) 25 ul of the overnight cultures were inoculated into fresh 96-deepwell block containing 1 ml Formedium Autoinduction Media (AIM). The AIM cultures were grown for 3h at 37° C. (900rpm) and then transferred to 20° C. overnight (900rpm) to allow protein expression. The overnight cultures were centrifuged and 500 ul of Cellytic B (Sigma Aldrich) was added to resuspend the cell pellets. The coupled HGO assay (Siehl et al, 2014) is used to generate IC50 values for the HPPD variants of interest.
# (§2) E. coli BL21 (DE3) cells were transformed with a pET24a vector containing a C-terminally his-tagged Arabidopsis HGO gene, grown and induced overnight as described for the HPPD variants above. The cell pellet was resuspended in phosphate buffered saline at pH 7.4 containing 10% Glycerol, 1mm Tris[2-carboxyethyl] phosphine-HCl (TCEP) plus 30 mM Imidazole and lysed using lysozyme/benzonase. The extract was clarified by low speed centrifugation and purified in the same buffer down a 1 ml His Gravitrap column. The bound HGO was eluted in 0.25M imidazole and the fractions pooled and beaded into liquid nitrogen. All procedures apart from the centrifugation and beading steps were carried out under a nitrogen atmosphere.
# (§3) The coupled HGO assay is carried out by adding 10 ul of HPPD extract to a 96-well plate and then adding 40 ul of reaction buffer (50 mM Bis Tris Propane, pH7.0, 25 mM sodium-L-ascorbate, 400μM mercaptoethanol, 50 μM Fe(II)SO4). The plates are left to incubate for 5 minutes on ice. […] 200 ul of HPP/HGO (197 μM hydroxyphenylpyruvic acid, 16 μl/ml Homogentisic Acid Oxidase in reaction buffer as described above) buffer is then added to the well and the reaction is regularly monitored (e.g. every 30 seconds-5 minutes) for absorbance at 330 nm for a given time period (e.g., for between 15-60 minutes). The data can then be used to calculate the IC50 value for each HPPD variant of interest.
# [2] = target: HPPD variant AVESA V357 (SEQ ID NO: 53) (Avena sativa, UniProt A0ACD5V6K6, A327R/I340E/L359M/P271N/R214G/S304T/V218I); test: biochemical; type: biochemical
# Chain of HPPD variant AVESA V357 (SEQ ID NO: 53) (Avena sativa, UniProt A0ACD5V6K6, A327R/I340E/L359M/P271N/R214G/S304T/V218I) (A0ACD5V6K6 entry or part of it R214G/V218I/P271N/S304T/A327R/I340E/L359M): as the sequence (A0ACD5V6K6 entry or part of it V218I/P271N/A327R/I340E/L359M) above, with R214G, S304T counted along it
# Procedure: as §1, §2, §3
# [3] = target: HPPD variant AVESA V349 (SEQ ID NO: 47) (Avena sativa, UniProt A0ACD5V6K6, A327R/I340E/L359M/P271N/S304T/V218I); test: biochemical; type: biochemical
# Chain of HPPD variant AVESA V349 (SEQ ID NO: 47) (Avena sativa, UniProt A0ACD5V6K6, A327R/I340E/L359M/P271N/S304T/V218I) (A0ACD5V6K6 entry or part of it V218I/P271N/S304T/A327R/I340E/L359M): as the sequence (A0ACD5V6K6 entry or part of it V218I/P271N/A327R/I340E/L359M) above, with S304T counted along it
# Procedure: as §1, §2, §3
# [4] = tested on: HPPD variant AVESA V349 (SEQ ID NO: 47); test: biochemical; type: biochemical, Avena sativa
# Procedure: as §1, §2, §3
# [5] = tested on: HPPD variant AVESA V357 (SEQ ID NO: 53); test: biochemical; type: biochemical, Avena sativa
# Procedure: as §1, §2, §3
# [6] = tested on: HPPD variant APESV V162 (SEQ ID NO: 123); test: coupled HGO assay; type: biochemical, Apera spica-venti
# Procedure: DNA sequences (SEQ ID NOs: 65-118, 128, 130, 131, and 133), synthesized for expression in E. coli, by GeneWiz (USA) to encode HPPD variants (SEQ ID NOs: 5-58, 122, 124, 125 and 127) derived from either Avena sativa (SEQ ID NOs: 122, 124), Alopecurus myosuroides (SEQ ID NO: 126) or Apera spica-venti (SEQ ID NOs: 123, 125) were transformed into E coli BL21 (DE3) (New England Biolabs) and grown in 0.5 ml Terrific broth +50 ug/ml Kanamycin media in a 96-deepwell block overnight (37° C., 900rpm). 25 ul of the overnight cultures were inoculated into fresh 96-deepwell block containing 1 ml Formedium Autoinduction Media (AIM). The AIM cultures were grown for 3h at 37° C. (900rpm) and then transferred to 20° C. overnight (900rpm) to allow protein expression. The overnight cultures were centrifuged and 500 ul of Cellytic B (Sigma Aldrich) was added to resuspend the cell pellets. The coupled HGO assay (Siehl et al, 2014) is used to generate IC50 values for the HPPD variants of interest.
# as §2, §3
# wild-type tobacco plants = test: spray test, herbicidal damage scoring; type: in vivo; conditions: Table 4.1, 7 days after treatment, 100=complete death, 0=no damage, one value per plant/event
# Procedure: Once rooted, plantlets are transferred from agar and potted into 50% peat, 50% John Innes Soil No. 3 or, for example, MetroMix® 380 soil (Sun Gro Horticulture, Bellevue, WA) with slow-release fertilizer in 3 inch round or 4 inch square pots and left regularly watered to establish for 8-12d in the glass house. Glass house conditions are about 24-27° C. day; 18-21° C. night and approximately a 14h (or longer in UK summer) photoperiod.
# About 20-30 TO events are produced for a number of HPPD variant genes.
# Tables 4.1-4.9 show the herbicidal damage scoring on transgenic tobacco plants 7 days after treatment. A score of 100=complete death and 0=no damage observed.
# [7] = target: HPPD variant AVESA V307 (SEQ ID NO: 35) (Avena sativa, UniProt A0ACD5V6K6, A327R/I340E/L359M/P271N/R214G/V218I/V260A); test: biochemical; type: biochemical
# Chain of HPPD variant AVESA V307 (SEQ ID NO: 35) (A0ACD5V6K6 entry or part of it R214G/V218I/V260A/P271N/A327R/I340E/L359M): as the sequence (A0ACD5V6K6 entry or part of it V218I/P271N/A327R/I340E/L359M) above, with R214G, V260A counted along it
# Procedure: as §1, §2, §3
# [8] = target: HPPD variant AVESA V351 (SEQ ID NO: 50) (Avena sativa, UniProt A0ACD5V6K6, A327R/G411A/I340E/L359Y/R214G/S304T/V218I); test: biochemical; type: biochemical
# Chain of HPPD variant AVESA V351 (SEQ ID NO: 50) (A0ACD5V6K6 entry or part of it R214G/V218I/S304T/A327R/I340E/L359Y/G411A): as the sequence (A0ACD5V6K6 entry or part of it V218I/P271N/A327R/I340E/L359M) above, with R214G, N271P, S304T, M359Y, G411A counted along it
# Procedure: as §1, §2, §3
# [9] = target: HPPD variant AVESA V296 (SEQ ID NO: 20) (Avena sativa, UniProt A0ACD5V6K6, A327R/G411A/I340E/L359Y/R214G/V218I); test: biochemical; type: biochemical
# Chain of HPPD variant AVESA V296 (SEQ ID NO: 20) (A0ACD5V6K6 entry or part of it R214G/V218I/A327R/I340E/L359Y/G411A): as the sequence (A0ACD5V6K6 entry or part of it V218I/P271N/A327R/I340E/L359M) above, with R214G, N271P, M359Y, G411A counted along it
# Procedure: as §1, §2, §3
# [10] = target: HPPD variant AVESA V306 (SEQ ID NO: 32) (Avena sativa, UniProt A0ACD5V6K6, A327R/I340E/L359M/P271N/R214G/V218I); test: biochemical; type: biochemical
# Chain of HPPD variant AVESA V306 (SEQ ID NO: 32) (A0ACD5V6K6 entry or part of it R214G/V218I/P271N/A327R/I340E/L359M): as the sequence (A0ACD5V6K6 entry or part of it V218I/P271N/A327R/I340E/L359M) above, with R214G counted along it
# Procedure: as §1, §2, §3
# [11] = target: HPPD variant AVESA V201 (SEQ ID NO: 8) (Avena sativa, UniProt A0ACD5V6K6, A327R/G411A/I340E/L359M/V218I/V260A); type: biochemical; conditions: AVESA V201, SEQ ID NO: 8
# Chain of HPPD variant AVESA V201 (SEQ ID NO: 8) (A0ACD5V6K6 entry or part of it V218I/V260A/A327R/I340E/L359M/G411A): as the sequence (A0ACD5V6K6 entry or part of it V218I/P271N/A327R/I340E/L359M) above, with V260A, N271P, G411A counted along it
# Procedure: as §1, §2, §3
# [12] = AVESA V208, SEQ ID NO: 14, read-out: IC50
# [13] = AVESA V357, SEQ ID NO: 53, read-out: IC50
# [14] = AVESA V349, SEQ ID NO: 47, read-out: IC50
# [15] = AVESA V351, SEQ ID NO: 50, read-out: IC50
# [16] = AVESA V296, SEQ ID NO: 20, read-out: IC50
# [17] = AVESA V306, SEQ ID NO: 32, read-out: IC50
Compound,"IC50 [1, 12] [µM]","IC50 [2, 13] [µM]","IC50 [3, 14] [µM]",IC50 fold improvement compared to SEQ ID NO: 122 [4] [×],IC50 fold improvement over SEQ ID NO: 122 [5],IC50 [6] [µM],"IC50 [8, 15] [µM]","IC50 [9, 16] [µM]","IC50 [10, 17] [µM]",IC50 [11] [µM],further results
"COc1ccc(-n2nc(C)cc(C(=O)C3C(=O)CCCC3=O)c2=O)cc1OC [Herbicide C, dioxopyritrione]",> 50,0.28,> 50,> 200,no improvement,0.26,14.3,1.3,> 50,0.89,"herbicidal damage scoring, Herbicide C 100 g/ha (wild-type tobacco plants): 95 and 99 and 96; herbicidal damage scoring, Herbicide C (200 g/ha) (wild-type tobacco plants): 95 and 97 and 98 and 96; IC50 ([7]; AVESA V307, SEQ ID NO: 35, read-out: IC50): < 0.19 µM"
"Cn1nnnc1NC(=O)c1ccc(C(F)(F)F)nc1-n1cncn1 [Herbicide D, N-(1-methyltetrazol-5-yl)-2-(1,2,4-triazol-1-yl)-6-(trifluoromethyl)pyridine-3-carboxamide]",–,–,–,29,36 ×,11.3,–,–,–,–,"IC50 [1]: 182 µM; IC50 [2]: 243 µM; IC50 [3]: 197 µM; herbicidal damage scoring, Herbicide D (2000 g/ha) (wild-type tobacco plants): 99 and 96 and 97 and 95; IC50 [7]: 262 µM; IC50 [8]: > 500 µM; IC50 [9]: > 500 µM; IC50 [10]: 129 µM"
bicyclopyrone,39.3,42.1,10.2,27,110 ×,< 0.39,> 500,> 500,10.2,> 500,"herbicidal damage scoring, Bicyclopyrone (800 g/ha) (wild-type tobacco plants): 95"
